Test results published in US9642831B2, “Substituted chromanes and method of use” (AbbVie S.á.r.l., priority 2014, dated 2017).

Target: F508delCFTR (Homo sapiens, UniProt P13569, DEL508-508)
Test: Cell Surface Expression-Horse Radish Peroxidase (CSE-HRP) assay
Assay type: cell-based
Set-up: expressed in transfected cells; host or cells: CFBE41o- human lung derived epithelial cell line, doxycycline-inducible
Details: CFBE4lo-F508delCFTR-HRP cells; for EC50: 18-24 hours at 33° C., 8-point curve, highest concentration 20 μM, luminescence readout; for Emax: maximum % activity at any tested concentration, normalized to on-plate positive control (3 μM Example 1)
Outline: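 Following 18-24 h compound exposure at 33° C. Expression was doxycycline-induced beforehand. % activity versus DMSO and a 3 μM corrector control gave maximum activity and EC50 from a variable-Hill sigmoidal fit.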

Chain of F508delCFTR (P13569 with tags, fused parts or gaps DEL508-508): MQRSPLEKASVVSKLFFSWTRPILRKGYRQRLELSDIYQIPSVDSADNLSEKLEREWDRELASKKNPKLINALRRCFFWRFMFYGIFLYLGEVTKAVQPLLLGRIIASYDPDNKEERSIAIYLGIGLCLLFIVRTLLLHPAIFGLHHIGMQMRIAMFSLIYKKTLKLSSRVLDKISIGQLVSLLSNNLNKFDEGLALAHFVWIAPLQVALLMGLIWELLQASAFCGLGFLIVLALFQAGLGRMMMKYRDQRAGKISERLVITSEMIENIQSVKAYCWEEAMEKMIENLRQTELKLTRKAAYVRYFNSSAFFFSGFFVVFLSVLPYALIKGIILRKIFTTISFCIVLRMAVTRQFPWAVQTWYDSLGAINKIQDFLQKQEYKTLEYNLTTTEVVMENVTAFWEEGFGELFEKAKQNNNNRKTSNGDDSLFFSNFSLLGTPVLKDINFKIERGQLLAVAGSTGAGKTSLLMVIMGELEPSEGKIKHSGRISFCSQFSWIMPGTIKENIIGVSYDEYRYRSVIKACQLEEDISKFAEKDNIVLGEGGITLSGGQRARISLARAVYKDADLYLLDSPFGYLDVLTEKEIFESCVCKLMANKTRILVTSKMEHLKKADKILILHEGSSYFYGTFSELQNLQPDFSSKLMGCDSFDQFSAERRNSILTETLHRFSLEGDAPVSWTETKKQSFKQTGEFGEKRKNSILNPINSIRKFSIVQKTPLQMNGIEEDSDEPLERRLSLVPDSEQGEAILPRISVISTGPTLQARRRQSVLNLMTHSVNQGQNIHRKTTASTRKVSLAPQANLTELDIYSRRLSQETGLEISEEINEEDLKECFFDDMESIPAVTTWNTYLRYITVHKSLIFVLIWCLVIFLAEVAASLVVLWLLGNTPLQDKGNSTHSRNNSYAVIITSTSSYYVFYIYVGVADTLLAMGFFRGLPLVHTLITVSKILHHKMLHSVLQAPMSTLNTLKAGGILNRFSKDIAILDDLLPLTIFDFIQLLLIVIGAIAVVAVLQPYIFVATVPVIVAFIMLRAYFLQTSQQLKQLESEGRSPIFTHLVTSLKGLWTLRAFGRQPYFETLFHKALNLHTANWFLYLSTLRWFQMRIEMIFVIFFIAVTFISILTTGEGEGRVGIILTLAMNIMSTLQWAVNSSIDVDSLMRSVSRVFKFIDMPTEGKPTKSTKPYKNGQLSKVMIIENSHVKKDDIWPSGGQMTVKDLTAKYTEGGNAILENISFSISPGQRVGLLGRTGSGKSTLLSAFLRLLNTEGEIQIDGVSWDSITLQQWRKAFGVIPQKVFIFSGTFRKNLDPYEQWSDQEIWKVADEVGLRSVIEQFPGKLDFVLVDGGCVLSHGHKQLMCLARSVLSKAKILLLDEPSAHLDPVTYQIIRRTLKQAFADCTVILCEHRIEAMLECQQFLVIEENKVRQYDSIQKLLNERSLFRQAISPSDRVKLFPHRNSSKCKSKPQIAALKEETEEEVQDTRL

Structure (SMILES) | EC50 | Emax
O=C(O)c1cccc([C@H]2C[C@@H](NC(=O)C3(c4ccc5c(c4)OC(F)(F)O5)CC3)c3ccc(O)cc3O2)c1 [Example 23, 3-[(2R,4R)-4-({[1-(2,2-difluoro-1,3-benzodioxol-5-yl)cyclopropyl]carbonyl}amino)-7-hydroxy-3,4-dihydro-2H-chromen-2-yl]benzoic acid] | ≥ 20000 nM | 12%
O=C(O)C1CCCC([C@H]2C[C@@H](NC(=O)C3(c4ccc5c(c4)OC(F)(F)O5)CC3)c3ccc(F)cc3O2)C1 (stereo partly drawn) [Example 36, 3-[(2R,4R)-4-({[1-(2,2-difluoro-1,3-benzodioxol-5-yl)cyclopropyl]carbonyl}amino)-7-fluoro-3,4-dihydro-2H-chromen-2-yl]cyclohexanecarboxylic acid] | 1820 nM | 78%
O=C(O)c1ccc2c(c1)OCCC2NC(=O)C1(c2ccc3c(c2)OC(F)(F)O3)CC1 (stereo not drawn) [Example 42, 4-({[1-(2,2-difluoro-1,3-benzodioxol-5-yl)cyclopropyl]carbonyl}amino)-3,4-dihydro-2H-chromene-7-carboxylic acid] | ≥ 20000 nM | 5%
COc1cccc([C@H]2C[C@@H](NC(=O)C3(c4ccc5c(c4)OC(F)(F)O5)CC3)c3cc(C(=O)O)ccc3O2)c1 [Example 44, (2R,4R)-4-({[1-(2,2-difluoro-1,3-benzodioxol-5-yl)cyclopropyl]carbonyl}amino)-2-(3-methoxyphenyl)-3,4-dihydro-2H-chromene-6-carboxylic acid] | ≥ 20000 nM | 14%
COC(=O)c1ccc2c(c1)[C@H](NC(=O)C1(c3ccc4c(c3)OC(F)(F)O4)CC1)C[C@H](C1CCCC(OC)C1)O2 (stereo partly drawn) [Example 46, methyl (2R,4R)-4-({[1-(2,2-difluoro-1,3-benzodioxol-5-yl)cyclopropyl]carbonyl}amino)-2-(3-methoxycyclohexyl)-3,4-dihydro-2H-chromene-6-carboxylate] | 5140 nM | 27%
COC(=O)c1ccc2c(c1)[C@H](NC(=O)C1(c3ccc4c(c3)OC(F)(F)O4)CC1)C[C@H](c1cccc(OC)c1)O2 [Example 47, methyl (2R,4R)-4-({[1-(2,2-difluoro-1,3-benzodioxol-5-yl)cyclopropyl]carbonyl}amino)-2-(3-methoxyphenyl)-3,4-dihydro-2H-chromene-6-carboxylate] | 4000 nM | 43%
Cc1ccc2c(c1)O[C@@H](c1cccc(C(=O)N3CCOC(CO)C3)c1)C[C@H]2NC(=O)C1(c2ccc3c(c2)OC(F)(F)O3)CC1 (stereo partly drawn) [Example 53, 1-(2,2-difluoro-1,3-benzodioxol-5-yl)-N-[(2R,4R)-2-(3-{[2-(hydroxymethyl)morpholin-4-yl]carbonyl}phenyl)-7-methyl-3,4-dihydro-2H-chromen-4-yl]cyclopropanecarboxamide] | 1760 nM | 90%
Cc1ccc2c(c1)O[C@@H](c1cccc(C(=O)N3CC(C)(CO)C3)c1)C[C@H]2NC(=O)C1(c2ccc3c(c2)OC(F)(F)O3)CC1 [Example 55, 1-(2,2-difluoro-1,3-benzodioxol-5-yl)-N-[(2R,4R)-2-(3-{[3-(hydroxymethyl)-3-methylazetidin-1-yl]carbonyl}phenyl)-7-methyl-3,4-dihydro-2H-chromen-4-yl]cyclopropanecarboxamide] | 2110 nM | 101%
O=C(NC1CCOc2cc(Br)ccc21)C1(c2ccc3c(c2)OC(F)(F)O3)CC1 (stereo not drawn) [Example 56, N-(7-bromo-3,4-dihydro-2H-chromen-4-yl)-1-(2,2-difluoro-1,3-benzodioxol-5-yl)cyclopropanecarboxamide] | 3120 nM | 124%
O=C(NC1C[C@H](c2cccc(CO)c2)Oc2ccccc21)C1(c2ccc3c(c2)OC(F)(F)O3)CC1 (stereo partly drawn) [Example 58, 1-(2,2-difluoro-1,3-benzodioxol-5-yl)-N-{(2R)-2-[3-(hydroxymethyl)phenyl]-3,4-dihydro-2H-chromen-4-yl}cyclopropanecarboxamide] | 2540 nM | 101%
COc1ccc2c(c1)OCCC2NC(=O)C1(c2ccc3c(c2)OC(F)(F)O3)CC1 (stereo not drawn) [Example 59, 1-(2,2-difluoro-1,3-benzodioxol-5-yl)-N-(7-methoxy-3,4-dihydro-2H-chromen-4-yl)cyclopropanecarboxamide] | 3660 nM | 101%
COc1ccc2c(c1)OC(c1ccc(Cl)c(Cl)c1)CC2NC(=O)C1(c2ccc3c(c2)OC(F)(F)O3)CC1 (stereo not drawn) [Example 61, N-[2-(3,4-dichlorophenyl)-7-methoxy-3,4-dihydro-2H-chromen-4-yl]-1-(2,2-difluoro-1,3-benzodioxol-5-yl)cyclopropanecarboxamide] | 2040 nM | 132%

More lines, in order of falling EC50, values ahead:

EC50 | Emax | Structure (SMILES)
1720 nM | 82% | COC(=O)c1cccc([C@H]2C[C@@H](NC(=O)C3(c4ccc5c(c4)OC(F)(F)O5)CC3)c3ccc(F)cc3O2)c1 [Example 39, methyl 3-[(2R,4R)-4-({[1-(2,2-difluoro-1,3-benzodioxol-5-yl)cyclopropyl]carbonyl}amino)-7-fluoro-3,4-dihydro-2H-chromen-2-yl]benzoate]
1330 nM | 89% | COC(=O)c1ccc2c(c1)OCCC2NC(=O)C1(c2ccc3c(c2)OC(F)(F)O3)CC1 (stereo not drawn) [Example 45, methyl 4-({[1-(2,2-difluoro-1,3-benzodioxol-5-yl)cyclopropyl]carbonyl}amino)-3,4-dihydro-2H-chromene-7-carboxylate]
1160 nM | 82% | COc1ccc2c(c1)O[C@@H](C1CCCC(C(=O)O)C1)C[C@H]2NC(=O)C1(c2ccc3c(c2)OC(F)(F)O3)CC1 (stereo partly drawn) [Example 35, 3-[(2R,4R)-4-({[1-(2,2-difluoro-1,3-benzodioxol-5-yl)cyclopropyl]carbonyl}amino)-7-methoxy-3,4-dihydro-2H-chromen-2-yl]cyclohexanecarboxylic acid]
1010 nM | 93% | Cc1ccc2c(c1)O[C@@H](c1cccc(C(=O)N3CCCC(CO)C3)c1)C[C@H]2NC(=O)C1(c2ccc3c(c2)OC(F)(F)O3)CC1 (stereo partly drawn) [Example 52, 1-(2,2-difluoro-1,3-benzodioxol-5-yl)-N-[(2R,4R)-2-(3-{[3-(hydroxymethyl)piperidin-1-yl]carbonyl}phenyl)-7-methyl-3,4-dihydro-2H-chromen-4-yl]cyclopropanecarboxamide]
1000 nM | 104% | Cc1ccc2c(c1)O[C@@H](c1cccc(C(=O)NC[C@@H](O)CO)c1)C[C@H]2NC(=O)C1(c2ccc3c(c2)OC(F)(F)O3)CC1 [Example 48, 3-[(2R,4R)-4-({[1-(2,2-difluoro-1,3-benzodioxol-5-yl)cyclopropyl]carbonyl}amino)-7-methyl-3,4-dihydro-2H-chromen-2-yl]-N-[(2R)-2,3-dihydroxypropyl]benzamide]
970 nM | 105% | Cc1ccc2c(c1)O[C@@H](c1cccc(C(=O)N3CC[C@@H](O)C3)c1)C[C@H]2NC(=O)C1(c2ccc3c(c2)OC(F)(F)O3)CC1 [Example 49, 1-(2,2-difluoro-1,3-benzodioxol-5-yl)-N-[(2R,4R)-2-(3-{[(3R)-3-hydroxypyrrolidin-1-yl]carbonyl}phenyl)-7-methyl-3,4-dihydro-2H-chromen-4-yl]cyclopropanecarboxamide]
970 nM | 83% | Cc1ccc2c(c1)O[C@@H](c1cccc(C(=O)NCC(C)(C)O)c1)C[C@H]2NC(=O)C1(c2ccc3c(c2)OC(F)(F)O3)CC1 [Example 51, 3-[(2R,4R)-4-({[1-(2,2-difluoro-1,3-benzodioxol-5-yl)cyclopropyl]carbonyl}amino)-7-methyl-3,4-dihydro-2H-chromen-2-yl]-N-(2-hydroxy-2-methylpropyl)benzamide]
860 nM | 101% | Cc1ccc2c(c1)O[C@@H](c1cccc(C(=O)NCC(O)C(F)(F)F)c1)C[C@H]2NC(=O)C1(c2ccc3c(c2)OC(F)(F)O3)CC1 (stereo partly drawn) [Example 50, 3-[(2R,4R)-4-({[1-(2,2-difluoro-1,3-benzodioxol-5-yl)cyclopropyl]carbonyl}amino)-7-methyl-3,4-dihydro-2H-chromen-2-yl]-N-(3,3,3-trifluoro-2-hydroxypropyl)benzamide]
860 nM | 92% | Cc1ccc2c(c1)O[C@@H](c1cccc(C(=O)NCC3(O)CCC3)c1)C[C@H]2NC(=O)C1(c2ccc3c(c2)OC(F)(F)O3)CC1 [Example 54, 3-[(2R,4R)-4-({[1-(2,2-difluoro-1,3-benzodioxol-5-yl)cyclopropyl]carbonyl}amino)-7-methyl-3,4-dihydro-2H-chromen-2-yl]-N-[(1-hydroxycyclobutyl)methyl]benzamide]
850 nM | 78% | Cc1ccc2c(c1)O[C@@H](c1cccc(C(=O)NC3CCC(C)(C(=O)O)C3)c1)C[C@H]2NC(=O)C1(c2ccc3c(c2)OC(F)(F)O3)CC1 (stereo partly drawn) [Example 43, 3-({3-[(2R,4R)-4-({[1-(2,2-difluoro-1,3-benzodioxol-5-yl)cyclopropyl]carbonyl}amino)-7-methyl-3,4-dihydro-2H-chromen-2-yl]benzoyl}amino)-1-methylcyclopentanecarboxylic acid]
700 nM | 131% | COc1ccc2c(c1)OC(c1ccccc1)CC2NC(=O)C1(c2ccc3c(c2)OC(F)(F)O3)CC1 (stereo not drawn) [Example 60, 1-(2,2-difluoro-1,3-benzodioxol-5-yl)-N-(7-methoxy-2-phenyl-3,4-dihydro-2H-chromen-4-yl)cyclopropanecarboxamide]
690 nM | 135% | COc1ccc2c(c1)OC(c1ccc(OC)c(OC)c1)CC2NC(=O)C1(c2ccc3c(c2)OC(F)(F)O3)CC1 (stereo not drawn) [Example 62, 1-(2,2-difluoro-1,3-benzodioxol-5-yl)-N-[2-(3,4-dimethoxyphenyl)-7-methoxy-3,4-dihydro-2H-chromen-4-yl]cyclopropanecarboxamide]
